Experiments:
Conditions in all cases: incubation time: 72 h
[1] = system: CAL-148; experiment: drug sensitivity score (DSS), CellTox Green (DSS (AUC-based score)); higher = stronger drug effect (viability inhibition or cytotoxicity); extreme values may be limits of the assay
How it was run: (§1)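 Using 20 µl of cell suspension per well, breast cancer cell lines were seeded into 384-well plates pre-loaded with compound at 5 concentrations in 10-fold steps across a compound-specific 10,000-fold range. Incubation lasted 72 h, after which CellTox Green fluorescence at 485/520 nm and then CellTiter-Glo luminescence, following 10 min at room temperature, were recorded. Each plate was normalised to 0.1 % DMSO and a positive kill control before the drug sensitivity score was derived from the area under the fitted dose-response curve.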

[2] = system: MFM-223; experiment: as above
How it was run: as §1

[3] = system: CAL-85-1; experiment: as above
How it was run: as §1

[4] = system: HDQ-P1; experiment: normalised response (% of control), CellTiter-Glo; higher = more viable cells (100 = DMSO, 0 = benzethonium chloride kill control)
How it was run: (§2)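 The table gives the normalised signal for a single concentration in each entry. Breast cancer cell lines were seeded (20 µl suspension) into 384-well plates holding compound at 5 concentrations in 10-fold steps over a compound-specific 10,000-fold range and incubated 72 h, then read for CellTox Green fluorescence (485/520 nm) and CellTiter-Glo luminescence. Normalisation on each plate used 0.1 % DMSO (100) and a positive kill control (0).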

[5] = system: Hs578T; experiment: as above
How it was run: as §2

[6] = system: HCC1599; experiment: as above
How it was run: as §2

[7] = system: CAL-148; experiment: as above
How it was run: as §2

[8] = system: MDA-MB-468; experiment: as above
How it was run: as §2

[9] = system: BT-549; experiment: as above
How it was run: as §2

[10] = system: MFM-223; experiment: as above
How it was run: as §2

[11] = system: MDA-MB-231; experiment: as above
How it was run: as §2

[12] = system: MDA-MB-436; experiment: as above
How it was run: as §2

[13] = system: BT-474; experiment: as above
How it was run: as §2

[14] = system: CAL-85-1; experiment: as above
How it was run: as §2

[15] = system: MCF-10A; experiment: as above
How it was run: as §2

[16] = system: MDA-MB-453; experiment: as above
How it was run: as §2

[17] = system: DU-4475; experiment: as above
How it was run: as §2

[18] = system: HCC1937; experiment: as above
How it was run: as §2

[19] = system: CAL-120; experiment: as above
How it was run: as §2

[20] = system: CAL-51; experiment: as above
How it was run: as §2

[21] = system: HCC1143; experiment: as above
How it was run: as §2

[22] = system: SK-BR-3; experiment: as above
How it was run: as §2

Row | Structure (SMILES) | drug sensitivity score [1] | drug sensitivity score [2] | drug sensitivity score [3] | normalised response [4] [%] | normalised response [5] [%] | normalised response [6] [%] | normalised response [7] [%] | normalised response [8] [%] | normalised response [9] [%] | normalised response [10] [%] | normalised response [11] [%] | normalised response [12] [%] | normalised response [13] [%] | normalised response [14] [%] | normalised response [15] [%] | normalised response [16] [%] | normalised response [17] [%] | normalised response [18] [%] | normalised response [19] [%] | normalised response [20] [%] | normalised response [21] [%] | normalised response [22] [%]
1 | CC1(C)CCC(CN2CCN(c3ccc(C(=O)NS(=O)(=O)c4ccc(NCC5CCOCC5)c([N+](=O)[O-])c4)c(Oc4cnc5[nH]ccc5c4)c3)CC2)=C(c2ccc(Cl)cc2)C1 [ABT-199] | 0 | 0 | 0 | – | – | – | – | – | – | – | – | – | – | – | – | – | – | – | – | – | – | –
2 | O=NN(CCCl)C(=O)NCCCl [Carmustine] (1000 nM) | – | – | – | 101 | 102 | 101 | 91.3 | 96.8 | 101 | 97.6 | 97.8 | 101 | 95.5 | 97.5 | 98.3 | 102 | 98.9 | 99.8 | 96.6 | 121 | 100 | 96.2
3 | Cn1cnc2c(F)c(Nc3ccc(Br)cc3Cl)c(C(=O)NOCCO)cc21 [Selumetinib] (1000 nM) | – | – | – | 63.8 | 93.4 | 93.9 | 79.4 | 87.8 | 96.5 | 92.2 | 72.5 | 90.7 | 67.8 | 107 | 37.6 | 106 | 4.56 | 84.7 | 85.1 | 110 | 85.1 | 86.8
4 | Cn1cc(C2=Nc3cc(NC(=O)C(N)C4CCCCC4)cc4c3C2=CNNC4=O)cn1 (stereo not drawn) (1000 nM) | – | – | – | 85.2 | 41.3 | 11.9 | 83.8 | 30.7 | 25.7 | 46.4 | 63.7 | 53.3 | 68.5 | 36.8 | 74.5 | 35.9 | 89 | 87 | 69.7 | 81.6 | 64.5 | 17.8
5 | Cc1ccc([N+](=O)[O-])cc1S(=O)(=O)N(C)/N=C/c1cnc2ccc(Br)cn12 [PIK-75] | 0 | 12.3 | 25.2 | – | – | – | – | – | – | – | – | – | – | – | – | – | – | – | – | – | – | –
6 | COc1cc2c(cc1O)CC[C@@H]1[C@@H]2CC[C@]2(C)[C@@H](O)CC[C@@H]12 [2-methoxyestradiol] (1000 nM) | – | – | – | 99.9 | 77.3 | 96.6 | 96.4 | 95.1 | 49.5 | 75.3 | 73.9 | 74.2 | 68.9 | 77.6 | 96 | 72.7 | 98.5 | 89.6 | 81.8 | 92.9 | 82.5 | 83.2
7 | CC(=O)N(O)CCCCCNC(=O)CCC(=O)N(O)CCCCCNC(=O)CCC(=O)N(O)CCCCCN [Deferoxamine] | 7.47 | 0 | 0 | – | – | – | – | – | – | – | – | – | – | – | – | – | – | – | – | – | – | –
8 | CC(=O)c1c(C)c2cnc(Nc3ccc(N4CCNCC4)cn3)nc2n(C2CCCC2)c1=O [Palbociclib] | – | 0 | 0 | – | – | – | – | – | – | – | – | – | – | – | – | – | – | – | – | – | – | –
9 | CC(C)(C)c1cnc(CSc2cnc(NC(=O)C3CCNCC3)s2)o1 [SNS-032] (1000 nM) | – | – | – | 20.8 | 13 | 7.69 | 53.8 | 5.83 | 8.17 | 18.9 | 7.43 | 17.6 | 20.2 | 6.5 | 14.3 | 25.5 | 6.57 | 26.1 | 36.9 | 9.15 | 12.1 | 3.47
10 | Nc1ncn([C@@H]2O[C@H](CO)[C@@H](O)[C@H]2O)c(=O)n1 [Azacitidine] (1000 nM) | – | – | – | 96.4 | 102 | 84.9 | 96.2 | 39 | 80.5 | 96.7 | 97.4 | 79.1 | 96.7 | 106 | 110 | 96.8 | 90.5 | 90.9 | 91.1 | 119 | 99.5 | 91.7
11 | O=C1CN2Cc3c(ccc(Cl)c3Cl)N=C2N1 [Anagrelide] (1000 nM) | – | – | – | 95.1 | 88.7 | 118 | 95 | 102 | 95.1 | 102 | 94.2 | 95.8 | 90.7 | 101 | 101 | 101 | 98 | 96.8 | 93.6 | 88.4 | 97.9 | 98.2
12 | CC1(C)CNc2cc(NC(=O)c3cccnc3NCc3ccncc3)ccc21 [Motesanib] (1000 nM) | – | – | – | 96.6 | 96.4 | 98.1 | 86.4 | 91.5 | 97.6 | 91 | 89.1 | 103 | 91.9 | 93.5 | 96.9 | 101 | 98.4 | 101 | 92.3 | 85.7 | 93.6 | 80.6
13 | Oc1ncnc2[nH]ncc12 [Allopurinol] (1000 nM) | – | – | – | 98.1 | 109 | 119 | 99.2 | 106 | 99.7 | 108 | 103 | 100 | 101 | 96.2 | 106 | 107 | 105 | 94.3 | 98.8 | 123 | 107 | 112
14 | C[C@]1(O)C[C@@H](c2nc(-c3ccc4ccc(-c5ccccc5)nc4c3)c3c(N)nccn32)C1 [Linsitinib] | 0 | 0 | 0 | – | – | – | – | – | – | – | – | – | – | – | – | – | – | – | – | – | – | –
15 | Nc1nc2[nH]cnc2c(=S)[nH]1 [Thioguanine] (1000 nM) | – | – | – | 66.1 | 78.3 | 82 | 93.4 | 95.7 | 94.2 | 93.7 | 50.7 | 83.8 | 44.8 | 70.3 | 99.8 | 94.3 | 88.5 | 59.9 | 79 | 91.9 | 99.1 | 95.4
16 | Cc1sc2c(c1C)C(c1ccc(Cl)cc1)=N[C@@H](CC(=O)OC(C)(C)C)c1nnc(C)n1-2 [(+)JQ1] (1000 nM) | – | – | – | 68.5 | 48.8 | 80 | 71.5 | 55.1 | 43.5 | 58.2 | 77.2 | 83.2 | 69.9 | 38.7 | 57.1 | 46.1 | 56.6 | 80.8 | 73.4 | 103 | 72.8 | 66.9
17 | CC[C@@H]1C(=O)OC[C@@H]1Cc1cncn1C [Pilocarpine] (4000 nM) | – | – | – | 92 | 105 | 92.7 | 91.6 | 91.8 | 97.6 | 94.1 | 97.4 | 91.5 | 92.2 | 102 | 93.8 | 98.9 | 97 | 92.6 | 95.7 | 96.8 | 92.2 | 92.4
18 | CC1=C2C[C@H]3[C@@H](CC=C4C[C@@H](O)CC[C@@]43C)[C@@H]2CC[C@]12O[C@@H]1C[C@H](C)CN[C@H]1[C@H]2C [Cyclopamine] (1000 nM) | – | – | – | 103 | 111 | 108 | 105 | 105 | 92.4 | 110 | 112 | 101 | 95.7 | 106 | 106 | 108 | 99.5 | 98.5 | 106 | 68 | 105 | 111
19 | CC(=O)O[C@@]12CO[C@@H]1C[C@H](O)[C@@]1(C)C(=O)[C@H](O)C3=C(C)[C@@H](OC(=O)[C@H](O)[C@@H](NC(=O)OC(C)(C)C)c4ccccc4)C[C@@](O)([C@@H](OC(=O)c4ccccc4)[C@H]21)C3(C)C [Docetaxel] (100 nM) | – | – | – | 67.1 | 13 | 28.5 | 36.6 | 36.6 | 16 | 40 | 28.7 | 31.6 | 38.3 | 28.1 | 41.5 | 45.3 | 34.7 | 68.3 | 56.3 | 27.4 | 31.5 | 10.1
20 | COc1cc(F)c(F)c(Nc2ccc(I)cc2F)c1NS(=O)(=O)C1(C[C@H](O)CO)CC1 [Refametinib] | 0 | 0 | 12.3 | – | – | – | – | – | – | – | – | – | – | – | – | – | – | – | – | – | – | –
